Reference: patent US20260317356A1, “SMALL MOLECULE MODULATORS OF OGG1” (AZKARRA THERAPEUTICS, INC., priority 2023, published 2026)

Target: hOGG1 (Homo sapiens, UniProt O15527)
Assay: Biochemical fluorescence assay to measure enzymatic activity of hOGG1 (OGG1/APEX IC50)
Parameters: Protein His-hOGG1 (12-323) was prepared; His (N); host or cells: E. coli
Conditions: 1 nM OGG1+2 nM APEX+6 nM dsDNA (8-oxo-dG substrate); pH 7.5; RT 40 min; read-out: OGG1/APEX IC50
How it was run: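 His-hOGG1 (12-323, E. coli) at 1 nM with 2 nM hAPE1/APEX1, preincubated 20 min RT with compound. Then 6 nM 8-oxo-dG dsDNA substrate added, 40 min at RT in Tris pH 7.5, 100 mM KCl. TAMRA fluorescence (Ex520/Em600) converted to % inhibition vs controls; IC50 from 3-parameter fit of 10-point curve.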

hOGG1, sequence (O15527 12-323): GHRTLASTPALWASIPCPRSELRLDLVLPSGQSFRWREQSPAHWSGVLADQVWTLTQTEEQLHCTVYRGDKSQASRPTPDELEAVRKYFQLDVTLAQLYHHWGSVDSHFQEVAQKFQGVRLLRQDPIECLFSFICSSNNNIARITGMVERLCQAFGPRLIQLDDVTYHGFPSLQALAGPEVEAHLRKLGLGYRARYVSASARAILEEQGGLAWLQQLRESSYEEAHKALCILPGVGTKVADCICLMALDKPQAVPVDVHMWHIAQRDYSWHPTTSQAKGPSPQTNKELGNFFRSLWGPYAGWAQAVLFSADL

Row | IC50 | SMILES
1 | > 10 µM | COc1cc(NC(=O)[C@H]2CC[C@H](n3[nH]c4c(Br)cccc4c3=O)CC2)ccc1C (single isomer, unassigned) [Example 159, (1r,4r)-4-(7-Bromo-3-oxo-1H-indazol-2(3H)-yl)-N-(3-methoxy-4-methylphenyl)cyclohexanecarboxamide]
2 | 0.1 to 1 µM | COc1cc(NC(=O)[C@H]2CC[C@@H](N3Cc4c(C)cc(C(=O)O)cc4NC3=O)CC2)ccc1C [Example 79, 3-((1s,4s)-4-(3-methoxy-4-methylphenylcarbamoyl)cyclohexyl)-5-methyl-2-oxo-1,2,3,4-tetrahydroquinazoline-7-carboxylic Acid]
3 | < 0.1 µM | COc1cc(NC(=O)[C@H]2CC[C@@H](N3Cc4c(C)cnc(C#N)c4NC3=O)CC2)ccc1C [Example 22, (1s,4s)-4-(8-Cyano-5-methyl-2-oxo-1,2-dihydropyrido[3,4-d]pyrimidin-3(4H)-yl)-N-(3-methoxy-4-methylphenyl)cyclohexanecarboxamide]
4 | < 0.1 µM | COc1cc(NC(=O)[C@H]2CC[C@@H](N3Cc4c(C)cc(CNC(C)=O)cc4NC3=O)CC2)ccc1C [Example 27, (1s,4s)-4-(7-(Acetamidomethyl)-5-methyl-2-oxo-1,2-dihydroquinazolin-3(4H)-yl)-N-(3-methoxy-4-methylphenyl)cyclohexanecarboxamide]
5 | 1 to 10 µM | COc1ccc(NC(=O)[C@H]2CC[C@@H](N3Cc4c(C)cccc4C3=O)CC2)c(F)c1 [Example 242, (1s,4s)-N-(2-Fluoro-4-methoxyphenyl)-4-(4-methyl-1-oxoisoindolin-2-yl)cyclohexanecarboxamide]
6 | < 0.1 µM | COc1cc(NC(=O)[C@H]2CC[C@@H](N3Cc4c(C)ccc(O)c4NC3=O)CC2)ccc1C [Example 61, (1s,4s)-4-(8-hydroxy-5-methyl-2-oxo-1,2-dihydroquinazolin-3(4H)-yl)-N-(3-methoxy-4-methylphenyl)cyclohexanecarboxamide]
7 | < 0.1 µM | COc1cc(NC(=O)[C@H]2CC[C@@H](N3Cc4c(C)ccc(C5CC5)c4NC3=O)CC2)ccc1C [Example 39, (1s,4s)-4-(8-Cyclopropyl-5-methyl-2-oxo-1,2-dihydroquinazolin-3(4H)-yl)-N-(3-methoxy-4-methylphenyl)cyclohexanecarboxamide]
8 | 1 to 10 µM | Cc1ccc(NC(=O)[C@H]2CC[C@@H](N3Cc4c(C)cccc4C3=O)CC2)cc1C [Example 236, (1s,4s)-N-(3,4-Dimethylphenyl)-4-(4-methyl-1-oxoisoindolin-2-yl)cyclohexanecarboxamide]
9 | > 10 µM | COc1cc(NC(=O)[C@H]2CC[C@@H](N3Cc4c(cccc4C(C)C)C3=O)CC2)ccc1C [Example 158, (1s,4s)-4-(4-Isopropyl-1-oxoisoindolin-2-yl)-N-(3-methoxy-4-methylphenyl)cyclohexanecarboxamide]
10 | < 0.1 µM | Cc1cc(NCCN(C)C)cc2c1CN([C@H]1CC[C@@H](C(=O)Nc3ccc(Cl)c(F)c3)CC1)C2=O [Example 264, (1s,4s)-N-(4-Chloro-3-fluorophenyl)-4-(6-(2-(dimethylamino)ethylamino)-4-methyl-1-oxoisoindolin-2-yl)cyclohexanecarboxamide]
11 | 0.1 to 1 µM | COc1ccc(NC(=O)[C@H]2CC[C@@H](N3Cc4c(C)cccc4C3=O)CC2)cc1F [Example 224, (1s,4s)-N-(3-Fluoro-4-methoxyphenyl)-4-(4-methyl-1-oxoisoindolin-2-yl)cyclohexanecarboxamide]
12 | < 0.1 µM | COc1cc(NC(=O)[C@H]2CC[C@@H](N3Cc4c(C)cc(CN5CC[C@@H](O)C5)cc4C3=O)CC2)ccc1C [Example 137, (1S,4s)-4-(6-(((R)-3-Hydroxypyrrolidin-1-yl)methyl)-4-methyl-1-oxoisoindolin-2-yl)-N-(3-methoxy-4-methylphenyl)cyclohexanecarboxamide]
13 | 0.1 to 1 µM | COc1cc(NC(=O)[C@H]2CC[C@@H](N3Cc4c(ccc(N5CCC5)c4C)NC3=O)CC2)ccc1C [Example 42, (1s,4s)-4-(6-(Azetidin-1-yl)-5-methyl-2-oxo-1,2-dihydroquinazolin-3(4H)-yl)-N-(3-methoxy-4-methylphenyl)cyclohexanecarboxamide]
14 | 0.1 to 1 µM | COc1cc(NC(=O)[C@H]2CC[C@@H](N3Cc4c(C)cc(OCc5ncc[nH]5)cc4C3=O)CC2)ccc1C [Example 226, (1s,4s)-4-(6-((1H-Imidazol-2-yl)methoxy)-4-methyl-1-oxoisoindolin-2-yl)-N-(3-methoxy-4-methylphenyl)cyclohexanecarboxamide]
15 | 1 to 10 µM | COc1ccc(NC(=O)[C@H]2CC[C@@H](N3Cc4c(C)cccc4C3=O)CC2)cn1 [Example 249, (1s,4s)-N-(6-Methoxypyridin-3-yl)-4-(4-methyl-1-oxoisoindolin-2-yl)cyclohexanecarboxamide]
16 | 1 to 10 µM | COc1ccc(NC(=O)[C@]2(C)CC[C@@H](N3Cc4c(C)cccc4NC3=O)CC2)cc1Cl (single isomer, unassigned) [Example 104, (1r,4r)-N-(3-chloro-4-methoxyphenyl)-1-methyl-4-(5-methyl-2-oxo-1,2-dihydroquinazolin-3(4H)-yl)cyclohexanecarboxamide]
17 | 0.1 to 1 µM | COc1cc(NC(=O)[C@H]2CC[C@@H](N3Cc4c(Br)cc(NCCN5CCOCC5)cc4C3=O)CC2)ccc1C [Example 203, (1s,4s)-4-(4-Bromo-6-(2-morpholinoethylamino)-1-oxoisoindolin-2-yl)-N-(3-methoxy-4-methylphenyl)cyclohexanecarboxamide]
18 | 1 to 10 µM | COc1ccc(NC(=O)[C@]2(C)CC[C@@H](N3Cc4c(C)cccc4NC3=O)CC2)cc1C (single isomer, unassigned) [Example 106, (1r,4r)-N-(4-methoxy-3-methylphenyl)-1-methyl-4-(5-methyl-2-oxo-1,2-dihydroquinazolin-3(4H)-yl)cyclohexanecarboxamide]
19 | < 0.1 µM | COc1cc(NC(=O)[C@H]2CC[C@@H](N3Cc4c(Br)cc(NCC5CNC5)cc4C3=O)CC2)ccc1C [Example 177, (1s,4s)-4-(6-(Azetidin-3-ylmethylamino)-4-bromo-1-oxoisoindolin-2-yl)-N-(3-methoxy-4-methylphenyl)cyclohexanecarboxamide]
20 | < 0.1 µM | COc1cc(NC(=O)[C@H]2CC[C@@H](N3Cc4c(C)ccc(CN(C)C)c4NC3=O)CC2)ccc1C [Example 52, (1s,4s)-4-(8-((Dimethylamino)methyl)-5-methyl-2-oxo-1,2-dihydroquinazolin-3(4H)-yl)-N-(3-methoxy-4-methylphenyl)cyclohexanecarboxamide]
21 | 0.1 to 1 µM | COc1cc(NC(=O)[C@H]2CC[C@@H](N3Cc4c(C)cc(C=O)cc4C3=O)CC2)ccc1C [Example 210, (1s,4s)-4-(6-Formyl-4-methyl-1-oxoisoindolin-2-yl)-N-(3-methoxy-4-methylphenyl)cyclohexanecarboxamide]
22 | 1 to 10 µM | COc1cc(NC(=O)[C@@H]2CC[C@H](N3Cc4ccccc4NC3=O)C2)ccc1C [Example 65, (1R,3S)—N-(3-methoxy-4-methylphenyl)-3-(2-oxo-1,2-dihydroquinazolin-3(4H)-yl)cyclopentanecarboxamide]
23 | 1 to 10 µM | COc1cc(NC(=O)[C@H]2CC[C@@H](N3Cc4c(ccc(N)c4C)NC3=O)CC2)ccc1C [Example 46, (1s,4s)-4-(6-Amino-5-methyl-2-oxo-1,2-dihydroquinazolin-3(4H)-yl)-N-(3-methoxy-4-methylphenyl)cyclohexanecarboxamide]
